Test results as given in patent publication US9662404B2, “Compositions and methods for the delivery of molecules into live cells” (The Texas A&M University System, priority 2013, dated 2017).

Columns and labels:
HeLa cells [1] = experiment: Delivery of peptides inside live cells, internalization assessed by fluorescence microscopy; format: cell-based; details: 1 h incubation
Method: The TAT, dTAT and acTAT peptides were incubated for 1 h with several cell lines and internalization was assessed by fluorescence microscopy. […] See also FIG. 5. […] The cell lines HeLa, NIH 3T3, COLO 316 and HaCaT were incubated with 5 μM dTAT for 1 h, washed and imaged. […] After imaging, cells were incubated at 37° C. in a humidified atmosphere containing 5% CO2 for 24 h, washed and imaged again. […] Cell viability was assessed by exclusion of the cell-impermeable nuclear stain SYTOX® Blue at both 1 h and 24 h time point. […] Inverted monochrome (black=fluorescence signal, white-no signal) fluorescence images were made of HeLa cells incubated with 10 or 20 μM of TAT for 1 h.
Live cells from different lines (HeLa, HaCat, NIH 3T3) were grown in Dulbecco's […] (DMEM) (Fisher) supplemented with 10% fetal bovine serum (FBS) (Fisher) and kept at 37° C. in a humidified atmosphere containing 5% CO2. Cells were then seeded in 8-well dishes so that the cells were 80%-90% confluent after 48 h. […] The media (nrL-15) used for incubation lacks cysteine to avoid reduction of the disulfide bond of dTAT. Cells were then incubated with different concentrations of the acTAT, TAT, or dTAT at 37° C. for 1 h. […] Images were collected using a Rolera-MGI Plus back-illuminated EMCCD camera (Qimaging, Surrey, BC, Canada). Images were acquired using bright field imaging and three standard fluorescence filter sets: CFP (Ex=436±10 nm/Em=480±20 nm), RFP (Ex=560±20 nm/Em=630±35 nm), and FITC (Ex=488±10 nm/Em=520±20 nm). The fluorescence intensities of different cells were measured with the SlideBook 4.2 software (Olympus, Center Valley, Pa.) and the average fluorescence intensity was determined for each condition. It has been previously reported that CPPs labeled with fluorophores such as TMR can photosensitize membranes and cause endosomal leakage upon light irradiation. See, Srinivasan, D. et al., “Conjugation to the cell-penetrating peptide TAT potentiates the photodynamic effect of carboxytetramethylrhodamine,” PloS one 6:e17732 (2011) and Muthukrishnan, N., et al., “Synergy Between Cell-Penetrating Peptides and Singlet Oxygen Generators Leads to Efficient Photolysis of Membranes,” Photochemistry and Photobiology 89:625-630 (2012), each incorporated herein by reference in its entirety. […] First, all delivery experiments were performed under conditions of minimal light irradiation (dark room with dim red light). When fluorescence imaging is required, probes (e.g., SNAP surface 488, EGFP) are imaged before dTAT is, thereby minimizing the possible effect of light on endosomal release. For experiments performed with Cre and Hoxb4, cells are not imaged and not exposed to light (not at all for Hoxb4, 12 h after incubation for Cre).

HeLa cells [2] = experiment: Quantitative determination of peptide uptake inside cells (bulk fluorescence of cell lysates); format: cell-based; details: acTAT 5-25 μM (FIG. 23)
Method: HeLa cells were seeded in a 48 well dish, grown and washed as described above. For the peptide uptake experiment, each well was incubated for 1 h with varying concentration of acTAT, TAT or dTAT (range: 5-25 μM peptide concentration). For the titration experiment, cells were incubated with dTAT (5 μM) and varying concentrations of DEAC-K9 (range: 1-20 μM). Cells were then washed with PBS and nrL-15 and imaged. Multiple images for each condition were obtained and processed. To lyse cells, nrL-15 was removed from the wells and a total of 100 μL of HeLa cell lysis Buffer (50 mM Tris pH 7.5, 2 mM EDTA, 2 mM DTT, 0.1% Triton X-100) was incubated with cells for 5 min. The cells were lysed and scraped off the dish and pipetted into a 1.5 mL microcentrifuge tube. The cell lysates were centrifuged at 13.2K RPM for 25 min. […] The fluorescence from the cell lysates were measured using a plate reader equipped with a fluorescence module (Ex==525, Em=580-640 nm) (GloMax®-Multi+ Detection System, Promega, Fitchburg, Wis.). For the titration experiment, 80 μL of supernatant was diluted to a total volume of 100 μL and the bulk fluorescence was measured using a SLM-8000C fluorometer (Ex=435 nm, Em=465-475 nm) (SLM Instruments, Bath, UK). The fluorescence emission was averaged and recorded. […] The absorbance at 600 nm was measured using the plate reader. […]

NIH 3T3 cells = experiment: HoxB4 and TAT-HoxB4 delivery, luciferase reporter under a HoxB4-inducible promoter; format: cell-based, murine
Method: Next, the delivery of the therapeutically important transcription factor HoxB4 was tested. HoxB4 can penetrate cells by itself or when fused to the […] TAT and activate transcription. […] NIH 3T3 cells were transfected with a vector containing the luciferase gene under a HoxB4-inducible promoter and with a β-galactosidase reporter as internal control. Cells were incubated with HoxB4 or TAT-HoxB4, in the absence or presence of dTAT for 1.5 h. Cells were then lysed and luciferase expression was assessed by measuring the luminescence of cell lysates normalized to β-galactosidase activity. […] These values are consistent with previously published reports. In contrast, addition of dTAT (3 μM), led to a luciferase induction of 53.1 and 307.4, respectively. The luciferase induction was therefore increased 24-fold in the presence of dTAT for HoxB4 and 61-fold for TAT-HoxB4. […] While increasing the transcriptional output of HoxB4 is valuable, high levels of HoxB4 expression can result in anti-proliferative and transforming effects. Precisely controlling the level and activity of HoxB4 inside cells is therefore important to achieve a desirable biological outcome. Because dTAT appears to act independently of the molecules used for co-incubation in our assays, it was hypothesized that it might be possible to titrate the amount of protein that penetrates cells by varying the protein concentration in the media while keeping dTAT concentration constant. Under this scenario, the efficiency of endosomal escape should remain unaffected but the amount of material released from endosomes should change.
The murine fibroblast cell line (NIH-3T3, stably transfected with the E2A-PBX vector), the luciferase reporter vector, pML (5×HOX/PBX; contains a promoter with binding sites for HOXB4 and PBX) and the β-gal internal control vector used in the following studies were kindly provided by P. Zandstra (University of Toronto, Ontario, Canada). The cells were initially cultured in 100 mm dishes at 37° C. with 5% CO2 in DMEM supplemented with 10% FBS. For experimental purposes, however, cells were seeded in 24-well plates at a density of 5-6×10^4 cells/well for 24 hours. Subsequently, cells were co-transfected with 0.8 μg/mL of pML (5×HOX/PBX) and of the β-gal internal control vector using Lipofectamine 2000. Twelve hours post-transfection, cells were washed and incubated with TAT-HoxB4 or HoxB4 (both at 200 nM, unless otherwise noted; see below) with or without TAT or dTAT in nrL-15 for 90 min. Some cells were also incubated with TAT-mCherry (200 nM) with and without the peptides. After incubation, all cells were washed with PBS and lysed according to the manufacturer's protocol for the reporter lysis buffer (RLB) (Promega). For titration experiments, the same protocol was followed, with the exception that HoxB4 concentrations were varied (25, 50, 100, 150 and 200 nM). In order to quantitate the luciferase reporter activity, 100 μL of luciferase assay reagent (Promega) was added to 20 μL of cell lysate and bioluminescence was immediately measured using a SpectraMaxL luminometer (Sunnyvale, Calif.). […] Absorbance was then measured at 450 nm using the plate reader. Since the absorption spectrum of the chromophore (TMR) conjugated to the peptide used in this study overlaps with that of β-gal, 20 μL of cell lysate containing the peptide was also diluted with 180 μL of the lysis buffer and absorbance values obtained at 450 nm were subtracted from that of the β-gal absorbance values. […]

HeLa cells [3] = experiment: dTAT-induced cytosolic release of DEAC-K9 trapped inside endosomes; format: cell-based
Method: (§1) FIGS. 8A-8C illustrate that dTAT mediates endosomal escape. (FIG. 8A) Effect of endocytic inhibitors on the cellular distribution of dTAT. HeLa cells were pre-treated with 50 μM amiloride or 200 nM bafilomycin for 30 and 20 min respectively, washed, and incubated with 5 μM dTAT and inhibitor. […] Scale bar, 10 μm. […] A schematic illustration of the experimental steps is shown (top). First, cells were incubated with 5 μM DEAC-K9 for 1 h and washed. Inverted monochrome images show a fluorescence punctuate distribution after incubation with DEAC-K9 alone. The same cells were then incubated with 5 μM dTAT for 1 h. Images show a redistribution of DEAC-K9 to the cytosol and nucleus (inhibited by bafilomycin). Scale bars, 10 μm. (FIG. 8C) The endosomolytic activity of dTAT is highly efficient. HeLa cells expressing SNAPH2B were incubated with 5 μM dTAT and 5 μM SNAP-Surface® 488. Fluorescence images show accumulation of SNAP-Surface® 488 in the nucleus. […] Small panels show cytosolic and nuclear fluorescence of TMR. Scale bars, 10 μm.
(§2) To test whether endosomal escape is involved in delivery of dTAT, the effects of amiloride, a macropinocytosis inhibitor, and bafilomycin, an inhibitor of endosomal acidification, were assessed. […] Cells were then washed and incubated with dTAT (FIG. 8B). […] This redistribution was however inhibited by bafilomycin.

HeLa cells [4] = experiment: Effect of endocytic inhibitors on cytosolic delivery of dTAT; format: cell-based; details: 50 μM amiloride or 200 nM bafilomycin pre-treatment, then 5 μM dTAT and inhibitor
Method: as §1, §2

[5] = tested on: HeLa transfected with the pCALNL-GFP plasmid; format: cell-based
Method: The number of cells in the images was approximately the same as assessed by bright field microscopy (1,000 cells/experiment, experiments in triplicate, average and standard deviations represented). Scale bars, 100 μM.
To further confirm that functional proteins can penetrate cells upon incubation with dTAT, delivery of Cre recombinase was tested. In this assay, Cre induces recombination of a loxP-STOP-loxP sequence upstream of the egfp gene of a reporter plasmid.

Question: What does the source list for C(S—CH2CONH2)K(ε-NH-TMR)TAT [acTAT]?
Answer: cellular localization of peptide fluorescence (HeLa cells [1]; 1-20 μM): punctate distribution; endosomal escape when internalized amount is above the dTAT threshold level (HeLa cells [2]): does not achieve endosomal escape

Question: Which “luciferase induction versus HoxB4 concentration” value (NIH 3T3 cells; HoxB4 25-200 nM, dTAT 3 μM) does the source give for “HoxB4: transcription factor with therapeutic potential for in vitro expansion of hematopoietic stem cells” here?
Answer: Its value is “responded linearly with the concentration of HoxB4 in the media”.

Question: And the “increase in luciferase activity over cells not treated with protein” value (NIH 3T3 cells; protein 200 nM alone, 1.5 h)?
Answer: The value was 2.2 fold.

Question: What about the luciferase induction (NIH 3T3 cells; protein 200 nM with dTAT 3 μM, 1.5 h) of the same compound?
Answer: Its luciferase induction is 53.1 fold.

Question: And the “increase of luciferase induction in the presence of dTAT over protein alone” value (NIH 3T3 cells; protein 200 nM, dTAT 3 μM)?
Answer: The value was 24 fold.

Question: Which results are given for `CO/C1=C\C(C)=C\[C@@H](C)[C@@H](O)[C@@H](C)C/C(C)=C/C=C/[C@H](OC)[C@@H]([C@@H](C)[C@@H](O)[C@H](C)[C@@]2(O)C[C@@H](O)[C@H](C)[C@@H](C(C)C)O2)OC1=O` [bafilomycin, reference compound]?
Answer: effect of bafilomycin on dTAT-induced DEAC-K9 redistribution (HeLa cells [3]): inhibited; effect of inhibitor on cytosolic delivery of dTAT (HeLa cells [4]): inhibited the cytosolic delivery of dTAT

Question: Which “effect of inhibitor on cytosolic delivery of dTAT” value (HeLa cells [4]) does the source give for `N=C(N)NC(=O)c1nc(Cl)c(N)nc1N` [amiloride] here?
Answer: Its value is “inhibited the cytosolic delivery of dTAT”.

Question: “CK(ε-NH-TMR)TAT ({Cys-K(TMR)}-RKKRRQRRRG-NH2) [monomer product: cysteine, TMR-modified lysine, TAT CPP domain … with C-terminal glycine amide]” was tested. Which “cellular localization of peptide fluorescence” value (HeLa cells [1]; 20 μM) did it give?
Answer: The value was “many cells display cytosolic fluorescence”.

Question: What about the “cellular localization of peptide fluorescence” value (HeLa cells [1]; up to 10 μM) of the same compound?
Answer: Its value is “localized inside endosomes”.

Question: And the “percentage of EGFP+ cells” value [5]?
Answer: Its value is 4.8%.
